Columns and labels:
[1] = test system: Aphidius rhopalosiphi; test: LR50; higher = less toxic; settings: not reported; mortality
[2] = test system: Cyprinus carpio; settings: acute; duration: 96 hours; mortality
[3] = test system: Apis mellifera; settings: acute; duration: 48 hours; dermal; mortality
[4] = test system: Pimephales promelas; settings: chronic/long-term; duration: 30 days; growth
[5] = test system: Rattus norvegicus
[6] = test system: Bibionidae; settings: chronic/long-term; duration: 28 days
[7] = test system: Coturnix coturnix; settings: acute; oral; mortality
[8] = test system: Anas platyrhynchos; settings: acute; oral; unspecified; mortality
[9] = test system: Tagia sp.; settings: acute; duration: 14 days; mortality
[10] = chronic/long-term; development
[11] = test system: Canidae; settings: oral, Dog Other, body weight
[12] = test system: Daphnia magna; settings: chronic/long-term; duration: 21 days; reproduction
[13] = test system: Mus musculus; settings: acute; oral; mortality

Q: What does the source list for `CC(=O)O.CCCCCCCCCCCCN=C(N)N` [Dodecylguanidine acetate]?
A: LR50 [1]: > 1800 g/ha; LC50 [2]: 0.6 µg/mL; LD50 [3]: > 100 µg/piece; NOEC [4]: 0.099 mg/L; LD50 ([5]; acute, oral, mortality): 851 mg/kg-day; NOEL ([5]; chronic, body weight): 18.6 mg/kg-day; NOAEL ([5]; reproduction developmental, body weight): 10 mg/kg-day; NOEC [6]: 3.2 mg/L; LD50 [7]: 981 mg/kg-day; LD50 [8]: 857 mg/kg-day; LC50 [9]: 547 mg/kg; NOEC [9]: 171 mg/kg; NOEL [10]: 45 mg/kg-day; NOAEL ([11]; chronic, duration: 1 years): 10 mg/kg-day; NOAEL ([11]; subchronic, duration: 90 days): 10 mg/kg-day; NOEC [12]: 0.0044 mg/L; LD50 [13]: 1350 mg/kg-day

Reference: EPA's ToxValDB 9.5 (doi:10.2903/j.efsa.2010.1631)
